In BindingDB's records for doi:10.7270/Q2J67FB5 (Nmmlsc, 2007):

Target: T1, fMet-Leu-Phe receptor (Homo sapiens, UniProt P21462)
T1 sequence (P21462 whole entry): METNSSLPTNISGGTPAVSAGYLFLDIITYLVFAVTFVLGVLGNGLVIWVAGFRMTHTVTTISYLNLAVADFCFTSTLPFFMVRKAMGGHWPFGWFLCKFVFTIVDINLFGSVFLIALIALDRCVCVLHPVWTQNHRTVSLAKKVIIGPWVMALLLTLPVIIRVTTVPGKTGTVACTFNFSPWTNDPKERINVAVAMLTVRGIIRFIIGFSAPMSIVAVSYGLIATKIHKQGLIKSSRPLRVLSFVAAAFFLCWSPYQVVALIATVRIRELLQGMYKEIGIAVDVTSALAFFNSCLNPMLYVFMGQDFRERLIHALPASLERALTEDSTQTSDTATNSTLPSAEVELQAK
Assay: FPR ligands, dose response (AID 519)

Row | Structure (SMILES) | IC50
1 | COc1ccc(C(=O)C2C(=O)C(=O)N(c3nc(C)c(C)s3)C2c2ccco2)cc1 (stereo unspecified) [(4Z)-1-(4,5-dimethyl-1,3-thiazol-2-yl)-5-(furan-2-yl)-4-[(4-methoxyphenyl)-oxidanyl-methylidene]pyrrolidine-2,3-dione] | > 66.7 µM
2 | Cc1ccc(C2C(C(=O)c3ccc(Br)cc3)C(=O)C(=O)N2Cc2ccco2)o1 (stereo unspecified) [(4Z)-4-[(4-bromophenyl)-hydroxy-methylene]-1-(2-furfuryl)-5-(5-methyl-2-furyl)pyrrolidine-2,3-quinone] | > 66.7 µM
3 | Cc1ccc(C2C(C(=O)c3ccc(Cl)cc3)C(=O)C(=O)N2CC2CCCO2)o1 (stereo unspecified) [(4Z)-4-[(4-chlorophenyl)-hydroxy-methylene]-5-(5-methyl-2-furyl)-1-(tetrahydrofurfuryl)pyrrolidine-2,3-quinone] | 11.6 µM
4 | Cc1ccc(C(=O)C2C(=O)C(=O)N(CCN3CCOCC3)C2c2cccnc2)cc1 (stereo unspecified) [(4Z)-4-[(4-methylphenyl)-oxidanyl-methylidene]-1-(2-morpholin-4-ylethyl)-5-pyridin-3-yl-pyrrolidine-2,3-dione] | > 66.7 µM
5 | COc1ccc(C2C(C(=O)c3ccccc3)C(=O)C(=O)N2CC(C)O)c(OC)c1 (stereo unspecified) [(4Z)-5-(2,4-dimethoxyphenyl)-4-[hydroxy(phenyl)methylene]-1-(2-hydroxypropyl)pyrrolidine-2,3-quinone] | 38.6 µM
6 | COc1ccc(OC)c(C2C(C(=O)c3ccccc3)C(=O)C(=O)N2Cc2ccco2)c1 (stereo unspecified) [(4Z)-5-(2,5-dimethoxyphenyl)-1-(2-furanylmethyl)-4-[hydroxy(phenyl)methylidene]pyrrolidine-2,3-dione] | 3.4 µM
7 | COc1cccc(C(=O)C2C(=O)C(=O)N(Cc3cccnc3)C2c2ccco2)c1 (stereo unspecified) [(4Z)-5-(2-furanyl)-4-[hydroxy-(3-methoxyphenyl)methylidene]-1-(3-pyridinylmethyl)pyrrolidine-2,3-dione] | > 66.7 µM
8 | O=C1Nc2ccccc2/C1=C1/SC(=S)N(CC2CCCO2)C1=O (stereo unspecified) [(5Z)-5-(2-ketoindolin-3-ylidene)-3-(tetrahydrofurfuryl)-2-thioxo-thiazolidin-4-one] | > 66.7 µM
9 | C=C(c1ccc(Br)cc1)c1sc(N2CCCC2)nc1O [(5Z)-5-[1-(4-bromophenyl)ethylidene]-2-(1-pyrrolidinyl)-4-thiazolone] | > 66.7 µM
10 | O=c1c(C23CC4CC(CC(C4)C2)C3)c(O)n(-c2ccccc2)n1-c1ccccc1 [MLS000526352] | 11.5 µM
11 | COC(=O)c1[nH]c(C)c(C(=O)C2C(=O)C(=O)N(CCCN3CCOCC3)C2c2ccccn2)c1C (stereo unspecified) [methyl 4-{[4-hydroxy-1-[3-(4-morpholinyl)propyl]-5-oxo-2-(2-pyridinyl)-2,5-dihydro-1H-pyrrol-3-yl]carbonyl}-3,5-dimethyl-1H-pyrrole-2-carboxylate] | 9.7 µM

Now from value to compound:

Row | IC50 | Structure (SMILES)
12 | 13.5 µM | CCOc1cccc(C(=O)C2C(=O)C(=O)N(CCOC)C2c2ccc(C)o2)c1 (stereo unspecified) [(4Z)-4-[(3-ethoxyphenyl)-hydroxymethylidene]-1-(2-methoxyethyl)-5-(5-methyl-2-furanyl)pyrrolidine-2,3-dione]
13 | > 66.7 µM | CCOc1cccc(C(=O)C2C(=O)C(=O)N(Cc3cccnc3)C2c2ccco2)c1 (stereo unspecified) [(4Z)-4-[(3-ethoxyphenyl)-hydroxymethylidene]-5-(2-furanyl)-1-(3-pyridinylmethyl)pyrrolidine-2,3-dione]
14 | 32 µM | CCOc1ccc(C(=O)C2C(=O)C(=O)N(CC3CCCO3)C2c2ccco2)cc1 (stereo unspecified) [(4Z)-4-[(4-ethoxyphenyl)-hydroxymethylidene]-5-(2-furanyl)-1-(2-oxolanylmethyl)pyrrolidine-2,3-dione]
15 | 21.1 µM | CCOc1ccc(C(=O)C2C(=O)C(=O)N(CC3CCCO3)C2c2ccc(C)o2)cc1 (stereo unspecified) [(4Z)-4-[(4-ethoxyphenyl)-hydroxymethylidene]-5-(5-methyl-2-furanyl)-1-(2-oxolanylmethyl)pyrrolidine-2,3-dione]
16 | > 66.7 µM | COc1ccc(C(=O)C2C(=O)C(=O)N(CCN3CCOCC3)C2c2ccc(C)cc2)cc1 (stereo unspecified) [(4Z)-4-[(4-methoxyphenyl)-oxidanyl-methylidene]-5-(4-methylphenyl)-1-(2-morpholin-4-ylethyl)pyrrolidine-2,3-dione]
17 | 24.6 µM | COc1ccccc1C1C(C(=O)c2ccccc2)C(=O)C(=O)N1CC(C)O (stereo unspecified) [(4Z)-4-[hydroxy(phenyl)methylene]-1-(2-hydroxypropyl)-5-(2-methoxyphenyl)pyrrolidine-2,3-quinone]
18 | 5.5 µM | COc1ccccc1C1C(C(=O)c2ccccc2)C(=O)C(=O)N1CC(C)C (stereo unspecified) [(4Z)-4-[hydroxy(phenyl)methylene]-1-isobutyl-5-(2-methoxyphenyl)pyrrolidine-2,3-quinone]
19 | 23.2 µM | Cc1ccc(C2C(C(=O)c3cnn(-c4ccccc4)c3C)C(=O)C(=O)N2CCN2CCOCC2)o1 (stereo unspecified) [(4Z)-4-[hydroxy-(5-methyl-1-phenyl-4-pyrazolyl)methylidene]-5-(5-methyl-2-furanyl)-1-[2-(4-morpholinyl)ethyl]pyrrolidine-2,3-dione]
20 | > 66.7 µM | CCN(CC)c1ccc(C=NC(C#N)C(=N)C#N)cc1 (stereo unspecified) [SMR000023871]
21 | > 66.7 µM | COc1cccc(OC)c1C(=O)C(C#N)c1nc2ccccc2[nH]1 (stereo unspecified) [SMR000024183]
